Test results reported in patent publication US20260207615A1, “FLUOROPYRIDOPYRIMIDINE AND FLUOROQUINAZOLINE DERIVATIES AND METHODS OF USE THEREOF” (Frontier Medicines Corporation, priority 2022, published 2026).
pIC50: −log10 of the molar value.

Target: T1, KRAS G12C and cRAF interaction (Homo sapiens, UniProt P01116, C118S/C51S/C80L/G12C)
T1 construct: truncated version comprising amino acids 1-169
Assay: Inhibition of KRAS G12C and cRAF binding (AlphaScreen)
Format: biochemical
Settings: KRAS G12C (Cys-light, aa 1-169) preloaded with GMPPNP, cRaf RBD (aa 50-131), 2 hours incubation
Outline: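 Biotin-AviTag KRAS G12C (Cys-light C51S/C80L/C118S, aa 1-169, GMPPNP-loaded; 0.5 nM final)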

T1 sequence (P01116 1-169 isoform P01116-2 G12C/C51S/C80L/C118S): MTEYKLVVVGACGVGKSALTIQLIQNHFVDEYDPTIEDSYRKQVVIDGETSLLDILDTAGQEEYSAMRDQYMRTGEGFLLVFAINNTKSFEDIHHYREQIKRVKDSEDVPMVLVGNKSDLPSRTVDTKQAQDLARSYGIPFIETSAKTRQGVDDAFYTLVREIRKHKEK

Compound	pIC50
C=CC(=O)N1[C@H](C)CN(c2nc(OC[C@@]34CCCN3C[C@H](F)C4)nc3c(F)c(-c4cccc5ccc(F)c(F)c45)ncc23)CC12COC2 [Example 64, 1-((R)-8-(7-(7,8-difluoronaphthalen-1-yl)-8-fluoro-2-(((2R,7aS)-2-fluorotetrahydro-1H-pyrrolizin-7a(5H)-yl)methoxy)pyrido[4,3-d]pyrimidin-4-yl)-6-methyl-2-oxa-5,8-diazaspiro[3.5]nonan-5-yl) prop-2-en-1-one]	> 8.00
O=C(/C=C/CN1[C@@H]2CC[C@H]1COC2)N1CCN(c2nc(OC[C@@]34CCCN3C[C@H](F)C4)nc3c(F)c(-c4cccc5ccc(F)c(F)c45)ncc23)CC12COC2 [Example 21, (E)-4-((1R,5S)-3-oxa-8-azabicyclo[3.2.1]octan-8-yl)-1-(8-(7-(7,8-difluoronaphthalen-1-yl)-8-fluoro-2-(((2R,7aS)-2-fluorotetrahydro-1H-pyrrolizin-7a(5H)-yl)methoxy)pyrido[4,3-d]pyrimidin-4-yl)-2-oxa-5,8-diazaspiro[3.5]nonan-5-yl) but-2-en-1-one]	> 8.00
Cc1cc(/C=C/C(=O)N2CCN(c3nc(OC[C@@]45CCCN4C[C@H](F)C5)nc4c(F)c(-c5cccc6ccc(F)c(Cl)c56)ncc34)CC23COC3)nc(C)n1 [Example 27, (E)-1-(8-(7-(8-chloro-7-fluoronaphthalen-1-yl)-8-fluoro-2-(((2R,7aS)-2-fluorotetrahydro-1H-pyrrolizin-7a(5H)-yl)methoxy)pyrido[4,3-d]pyrimidin-4-yl)-2-oxa-5,8-diazaspiro[3.5]nonan-5-yl)-3-(2,6-dimethylpyrimidin-4-yl) prop-2-en-1-one]	7.00 to 8.00
C#Cc1c(F)ccc2cccc(-c3ncc4c(N5CCN(C(=O)/C(F)=C/c6ccnc(C)n6)C6(COC6)C5)nc(OC[C@@]56CCCN5C[C@H](F)C6)nc4c3F)c12 [Example 49, (Z)-1-(8-(7-(8-ethynyl-7-fluoronaphthalen-1-yl)-8-fluoro-2-(((2R,7aS)-2-fluorotetrahydro-1H-pyrrolizin-7a(5H)-yl)methoxy)pyrido[4,3-d]pyrimidin-4-yl)-2-oxa-5,8-diazaspiro[3.5]nonan-5-yl)-2-fluoro-3-(2-methylpyrimidin-4-yl) prop-2-en-1-one]	> 8.00
O=C(/C=C/CN1C[C@H]2C[C@@H]1CO2)N1CCN(c2nc(OC[C@@]34CCCN3C[C@H](F)C4)nc3c(F)c(-c4cccc(Cl)c4C(F)(F)F)ncc23)CC12COC2 [Example 68, (E)-4-((1R,4R)-2-oxa-5-azabicyclo[2.2.1]heptan-5-yl)-1-(8-(7-(3-chloro-2-(trifluoromethyl)phenyl)-8-fluoro-2-(((2R,7aS)-2-fluorotetrahydro-1H-pyrrolizin-7a(5H)-yl)methoxy)pyrido[4,3-d]pyrimidin-4-yl)-2-oxa-5,8-diazaspiro[3.5]nonan-5-yl) but-2-en-1-one]	> 8.00
C=CC(=O)N1CCN(c2nc(OC[C@@H]3CCCN3C)nc3c(F)c(-c4cccc5cccc(Cl)c45)ncc23)CC12CCOC2 (stereo partly drawn) [Example 83]	≤ 6.30
C=C(F)C(=O)N1CCN(c2nc(OC[C@@]34CCCN3C[C@H](F)C4)nc3c(F)c(-c4cc(O)cc(Cl)c4C4CC4)ncc23)CC12COC2 [Example 79]	≤ 6.30
O=C(/C=C/CN1C[C@H]2C[C@@H]1CO2)N1CCN(c2nc(OC[C@@]34CCCN3C[C@H](F)C4)nc3c(F)c(-c4cccc5cccc(Cl)c45)ncc23)CC12COC2 [Example 13, (E)-4-((1R,4R)-2-oxa-5-azabicyclo[2.2.1]heptan-5-yl)-1-(8-(7-(8-chloronaphthalen-1-yl)-8-fluoro-2-(((2R,7aS)-2-fluorotetrahydro-1H-pyrrolizin-7a(5H)-yl)methoxy)pyrido[4,3-d]pyrimidin-4-yl)-2-oxa-5,8-diazaspiro[3.5]nonan-5-yl) but-2-en-1-one]	7.00 to 8.00
Cc1cc(/C=C/C(=O)N2CCN(c3nc(OC[C@@]45CCCN4C[C@H](F)C5)nc4c(F)c(-c5cccc(Cl)c5C(F)(F)F)ncc34)CC23COC3)nc(C)n1 [Example 69]	6.30 to 7.00
